Measurements published in patent publication US20130158098A1, “Alkenyl Substituted Cycloaliphatic Compounds as Chemical Inducers of Proximity” (priority 2010, published 2013).

Legend:
[1] = target: T1, VP16-PYLcs and Gal4 DBD-ABIcs (Arabidopsis thaliana, UniProt Q8VZS8); assay: ABA-induced GFP reporter activation in various cell lines; type: cell-based; settings: 100 μM, 24 h; CHO, HEK 293, Cos7, NIH3T3, TC1 cells
T1 construct: HA (from the reverse primer); expressed in transfected cells; host or cells: CHO; also HEK 293/293T, NIH3T3, COS7, B35, Jurkat, E14, TC1, MEF
T1 sequence (Q8VZS8 33-209): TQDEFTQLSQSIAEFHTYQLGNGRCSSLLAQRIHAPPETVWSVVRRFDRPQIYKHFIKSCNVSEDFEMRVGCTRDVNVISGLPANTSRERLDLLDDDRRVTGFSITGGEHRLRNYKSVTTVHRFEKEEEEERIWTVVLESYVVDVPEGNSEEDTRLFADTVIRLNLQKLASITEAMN
T1 sequence (P49597 126-423 partner): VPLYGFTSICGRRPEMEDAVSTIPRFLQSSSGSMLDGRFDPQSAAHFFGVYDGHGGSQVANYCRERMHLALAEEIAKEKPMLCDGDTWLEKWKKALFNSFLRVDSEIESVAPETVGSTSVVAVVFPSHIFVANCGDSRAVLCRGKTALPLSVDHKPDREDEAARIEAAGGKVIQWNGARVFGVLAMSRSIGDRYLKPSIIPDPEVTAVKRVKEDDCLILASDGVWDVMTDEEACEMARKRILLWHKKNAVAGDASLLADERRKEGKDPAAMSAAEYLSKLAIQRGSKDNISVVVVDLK
Text: Activation construct: A fragment of PYL1 (one of PYR/PYL/RCAR members) (aa 33-209, also referred to as “PYLcs”) was linked to a transcriptional activation domain and a fragment of ABI1 (one of PP2C members) (aa 126-423, SEQ ID NO:2, also referred to as “ABIcs”) was linked to a DNA binding domain using recombinant DNA methods. In the constructs illustrated in FIG. 1 and FIG. 2, PYL1 (“PYLcs”) is fused to the VP16 activation domain and ABI1 (“ABIcs”) is fused to the Gal4 DNA binding domain. These two regulatory elements are linked by IRES and driven by the SV40 early promoter. Reporter constructs: Full length Luciferase is driven by Fos gene minimal promoter with 5 copies of Gal4 DNA binding sites immediately upstream of Fos promoter. GFP reporter is driven by IL2 minimal promoter with 5×Gal4 DNA binding sites upstream.
ABA regulated transcriptional activation is applicable to various cell lines from different origins besides CHO cells, as shown in FIG. 7. […] 100 μM of ABA was then added to the cell culture and cells were observed under fluorescence microscope for GFP expression after another 24 h.

[2] = target: T2, GFP-PYLcs and ABIcs localization fusion proteins (Arabidopsis thaliana, UniProt Q8VZS8); assay: ABA-induced subcellular relocalization of PYLcs fusion proteins; type: cell-based
T2 construct: A fragment of PYL1 (aa 33-209) is fused to full length GFP or SOS; HA (from the reverse primer); expressed in transfected cells; host or cells: HEK 293 / HEK 293T
T2 sequence (Q8VZS8 33-209): T1 sequence (Q8VZS8 33-209)
T2 sequence (P49597 126-423 partner): T1 sequence (P49597 126-423 partner)
Method: A fragment of ABI1 (aa 126-423) is either fused to full length mouse Brg, full length mouse Numb, full length human CD4 or myristoylation signal. A fragment of PYL1 (aa 33-209) is fused to full length GFP or SOS. Full length SOS is fused either to myristoylation signal or three copies of FKBP12.
Cells grown on glass coverslips were washed in phosphate-buffered saline (PBS) and fixed with 4% paraformaldehyde (PFA, prepared in PBS) at room temperature for 20 min. After three 5-min washes in PBS, the cells were permeabilized with 5% normal goat serum and 0.1% Triton X-100 in PBS at room temperature for 30 min and incubated with primary antibodies (FLAG antibody M2, Agilent, cat. #200472-21) at 4° C. overnight in the same buffer. The slides were subsequently washed three times with PBS (5 min each wash) and then incubated with Alexa fluorophore 594-conjugated secondary antibodies (Molecular Probes) for 1 hour at room temperature in the dark. Slides were washed three times in PBS for 5 min. Finally, the slides were mounted in Vectashield containing 4′,6-diamidino-2-phenylindole (DAPI; H-1500, Vector Laboratories) and imaged (63×) with a Leica DM5000B microscope.
The area and integrated fluorescence intensity of the whole cell and the nucleus were measured with Fiji (an open-source image processing package based on ImageJ) for images from the cytoplasmic or nuclear localization experiments. The area and the integrated fluorescence intensity of the cytoplasm were calculated by subtracting the value of the nucleus from the whole cell. The mean fluorescence intensity of nucleus or cytoplasm was calculated by dividing the integrated fluorescence intensity with the area of each subcellular compartment. The ratio between nuclear or cytoplasmic distribution was calculated by comparing the corresponding mean fluorescence intensity. Twenty cells were measured in each experiment.
The activities of proteins are often regulated by their subcellular localization. In another variation of domain reconstitution, the ability of ABA-induced proximity to control the localization of a chosen protein was tested. Fusions of ABIcs to specific subcellular localization domains were constructed and ABA was used to dimerize these ABIcs localization fusion proteins to green fluorescent protein (GFP)-fused PYLcs. The relocation of GFP-PYLcs to four subcellular locations was induced by fusing ABIcs to (i) Numb to serve as a cytoplasmic localization partner (Dho, S. E. et al. (1999) Characterization of four mammalian Numb protein isoforms: Identification of cytoplasmic and membrane-associated variants of the phosphotyrosine binding domain. J. Biol. Chem. 274, 33097-33104), (ii) to a nuclear localization sequence (NLS) or to Brg1 (Brm/SWI2-related gene 1) to serve as nuclear localization partners (Khavari, P. A. et al. (1993) BRG1 contains a conserved domain of the SWI2/SNF2 family necessary for normal mitotic growth and transcription. Nature 366, 170-174), (iii) to CD4 (cluster of differentiation 4) to serve as a plasma membrane localization partner (Sattentau, Q. J. et al. (1988) The CD4 antigen: Physiological ligand and HIV receptor. Cell 52, 631-633), or (iv) to a myristoylation (myr) sequence to serve as a plasma membrane and an intracellular membrane localization partner (Holsinger, L. J. et al. (1995) Signal transduction in T lymphocytes using a conditional allele of Sos. Proc. Natl. Acad. Sci. U.S.A. 92, 9810-9814)).

## CC1=CC(=O)CC(C)(C)C1(O)/C=C/C(C)=C/C(=O)O (centres unmarked) [ABA, abscisic acid]
[1]
  GFP reporter expression: only expressed after ABA was added
[2]; 293T cells, ABA and Rap added together
  time to relocalization of mCherry-PYLcs to Brg-ABIcs (nucleus): ≤ 30 min
[2]; 293T cells, ABA or Rap added
  membrane localization of GFP-PYLcs to myr-ABIcs, specificity: observed only when the matching small molecule was added
[2]; Brg1-ABIcs or CD4-ABIcs, HEK 293T cells
  time to relocation of GFP-PYLcs to the nucleus or membrane: ≤ 30 min
[2]; Numb-ABIcs, HEK 293T cells
  time to cytoplasmic accumulation of GFP-PYLcs: ≤ 30 min
